Results as given in PubChem BioAssay AID1963427 (Molecular Pharmacology Branch, DTP, NCI, 2024).

Test system: 317291-083-R-J1-PDC complex spheroid growth
Assay: Anticancer human tumor 317291-083-R-J1-PDC patient-derived soft tissue sarcoma cell line growth inhibition [Asc]
Settings: for IC50: curve of first compound; for viability, T/C: stronger effect = lower value; active = viability on the fitted dose curve at most 10% of control; inactive = the rest
Outline: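 Spheroid model: tumor line + HUVEC + hMSC. Single agents and combinations; top conc. at/near clinical Cmax (10 microM if undetermined), half-log dilutions. DMSO stocks at 800-fold test concentration.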
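Also: compound exposure lasted seven days after spheroids formed for three days.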
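For viability, T/C in this document: 100% = DMSO vehicle control wells.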

C=C(F)C(=O)N1CCN(c2nc(OCC3CCCN3C)nc3c2CCN(c2cccc4cccc(Cl)c24)C3)CC1CC#N (centres undefined) + Cc1c(S(C)(=O)=O)c(-c2cc(F)cc(N3CCN(c4ccc(NS(=O)(=O)c5ccc(NC(CCN6CCC(C(=O)OCCCP(=O)(O)O)CC6)CSc6ccccc6)c(S(=O)(=O)C(F)(F)F)c5)cc4)CC3)c2)c(-c2ccc(Cl)cc2)n1C(C)C
1920 nM: IC50 (second compound 0.0316 µM)
active: viability, T/C (second compound 0.0316 µM, first compound 10 µM) 0.54% | viability, T/C (second compound 0.1 µM, first compound 10 µM) 0.18% | viability, T/C (second compound 0.316 µM, first compound 10 µM) 0.14% | viability, T/C (second compound 1 µM, first compound 10 µM) 2.51% | viability, T/C (second compound 3.16 µM, first compound 3.16 µM) 7.37% | viability, T/C (second compound 3.16 µM, first compound 10 µM) 0.24% | viability, T/C (second compound 10 µM, first compound 3.16 µM) 8.59% | viability, T/C (second compound 10 µM, first compound 10 µM) 0.29%
1620 nM: IC50 (second compound 1 µM)
1970 nM: IC50 (second compound 0.1 µM)
1170 nM: IC50 (second compound 3.16 µM)
1720 nM: IC50 (second compound 0.316 µM)
inactive: viability, T/C (second compound 0.0316 µM, first compound 0.0316 µM) 105% | viability, T/C (second compound 0.0316 µM, first compound 0.1 µM) 105% | viability, T/C (second compound 0.0316 µM, first compound 0.316 µM) 85.2% | viability, T/C (second compound 0.0316 µM, first compound 1 µM) 83.2% | viability, T/C (second compound 0.0316 µM, first compound 3.16 µM) 25.8% | viability, T/C (second compound 0.1 µM, first compound 0.0316 µM) 113% | viability, T/C (second compound 0.1 µM, first compound 0.1 µM) 97% | viability, T/C (second compound 0.1 µM, first compound 0.316 µM) 86.2% | viability, T/C (second compound 0.1 µM, first compound 1 µM) 96.7% | viability, T/C (second compound 0.1 µM, first compound 3.16 µM) 17.6% | viability, T/C (second compound 0.316 µM, first compound 0.0316 µM) 80.8% | viability, T/C (second compound 0.316 µM, first compound 0.1 µM) 90% | viability, T/C (second compound 0.316 µM, first compound 0.316 µM) 77.5% | viability, T/C (second compound 0.316 µM, first compound 1 µM) 87.1% | viability, T/C (second compound 0.316 µM, first compound 3.16 µM) 11.7% | viability, T/C (second compound 1 µM, first compound 0.0316 µM) 87.5% | viability, T/C (second compound 1 µM, first compound 0.1 µM) 72.9% | viability, T/C (second compound 1 µM, first compound 0.316 µM) 76.8% | viability, T/C (second compound 1 µM, first compound 1 µM) 76.3% | viability, T/C (second compound 1 µM, first compound 3.16 µM) 13.7% | viability, T/C (second compound 3.16 µM, first compound 0.0316 µM) 100% | viability, T/C (second compound 3.16 µM, first compound 0.1 µM) 69.9% | viability, T/C (second compound 3.16 µM, first compound 0.316 µM) 74.5% | viability, T/C (second compound 3.16 µM, first compound 1 µM) 58.6% | viability, T/C (second compound 10 µM, first compound 0.0316 µM) 96.5% | viability, T/C (second compound 10 µM, first compound 0.1 µM) 99.1% | viability, T/C (second compound 10 µM, first compound 0.316 µM) 96.7% | viability, T/C (second compound 10 µM, first compound 1 µM) 77.9%
1590 nM: IC50 (second compound 10 µM)

CCN1C(C(=O)NC23CCC(C(=O)O)(CC2)CC3)C(c2cccc(Cl)c2F)C2(C(=O)Nc3cc(Cl)ccc32)C12CCCCC2 (centres undefined) + Cc1c(S(C)(=O)=O)c(-c2cc(F)cc(N3CCN(c4ccc(NS(=O)(=O)c5ccc(NC(CCN6CCC(C(=O)OCCCP(=O)(O)O)CC6)CSc6ccccc6)c(S(=O)(=O)C(F)(F)F)c5)cc4)CC3)c2)c(-c2ccc(Cl)cc2)n1C(C)C
inactive: viability, T/C (second compound 0.0316 µM, first compound 0.00949 µM) 108% | viability, T/C (second compound 0.0316 µM, first compound 0.03 µM) 122% | viability, T/C (second compound 0.0316 µM, first compound 0.0949 µM) 99.7% | viability, T/C (second compound 0.0316 µM, first compound 0.3 µM) 95.1% | viability, T/C (second compound 0.0316 µM, first compound 0.949 µM) 83.6% | viability, T/C (second compound 0.0316 µM, first compound 3 µM) 80.5% | viability, T/C (second compound 0.1 µM, first compound 0.00949 µM) 110% | viability, T/C (second compound 0.1 µM, first compound 0.03 µM) 90.2% | viability, T/C (second compound 0.1 µM, first compound 0.0949 µM) 89.5% | viability, T/C (second compound 0.1 µM, first compound 0.3 µM) 98.2% | viability, T/C (second compound 0.1 µM, first compound 0.949 µM) 108% | viability, T/C (second compound 0.1 µM, first compound 3 µM) 73.4% | viability, T/C (second compound 0.316 µM, first compound 0.00949 µM) 80.9% | viability, T/C (second compound 0.316 µM, first compound 0.03 µM) 90.8% | viability, T/C (second compound 0.316 µM, first compound 0.0949 µM) 90.3% | viability, T/C (second compound 0.316 µM, first compound 0.3 µM) 98.4% | viability, T/C (second compound 0.316 µM, first compound 0.949 µM) 91.5% | viability, T/C (second compound 0.316 µM, first compound 3 µM) 67.6% | viability, T/C (second compound 1 µM, first compound 0.00949 µM) 92.2% | viability, T/C (second compound 1 µM, first compound 0.03 µM) 90.3% | viability, T/C (second compound 1 µM, first compound 0.0949 µM) 68.9% | viability, T/C (second compound 1 µM, first compound 0.3 µM) 90.2% | viability, T/C (second compound 1 µM, first compound 0.949 µM) 89.7% | viability, T/C (second compound 1 µM, first compound 3 µM) 58% | viability, T/C (second compound 3.16 µM, first compound 0.00949 µM) 83.9% | viability, T/C (second compound 3.16 µM, first compound 0.03 µM) 84.1% | viability, T/C (second compound 3.16 µM, first compound 0.0949 µM) 68.6% | viability, T/C (second compound 3.16 µM, first compound 0.3 µM) 82.1% | viability, T/C (second compound 3.16 µM, first compound 0.949 µM) 85.9% | viability, T/C (second compound 3.16 µM, first compound 3 µM) 63.1% | viability, T/C (second compound 10 µM, first compound 0.00949 µM) 99.3% | viability, T/C (second compound 10 µM, first compound 0.03 µM) 102% | viability, T/C (second compound 10 µM, first compound 0.0949 µM) 90.8% | viability, T/C (second compound 10 µM, first compound 0.3 µM) 85.4% | viability, T/C (second compound 10 µM, first compound 0.949 µM) 94.8% | viability, T/C (second compound 10 µM, first compound 3 µM) 75.8%
> 3000 nM: IC50 (second compound 0.0316 µM) | IC50 (second compound 0.1 µM) | IC50 (second compound 0.316 µM) | IC50 (second compound 1 µM) | IC50 (second compound 3.16 µM) | IC50 (second compound 10 µM)
